Measurements taken from patent US20220009920A1 (GB005, Inc., priority 2020, published 2022).

Experiments:
Test in all cases: Large panel kinase profiling
Assay type in all cases: biochemical
Conditions in all cases: 1 μM test article, 1 mM ATP
INSRR = INSRR (Homo sapiens, UniProt P14616)
Method in brief: (§1)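 One compound concentration (1 μM) was screened against each kinase at 1 mM ATP using PhosphoSens CSox-Sensor detection, at 30° C., with fluorescence read every 1 min (Ex 360 nm/Em 485 nm).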

SK3 = target: T1, SK3 (Homo sapiens, UniProt Q9Y2K2)
T1 construct: AssayQuant Technologies, Inc. (contract assay)
T1 sequence (Q9Y2K2 whole entry): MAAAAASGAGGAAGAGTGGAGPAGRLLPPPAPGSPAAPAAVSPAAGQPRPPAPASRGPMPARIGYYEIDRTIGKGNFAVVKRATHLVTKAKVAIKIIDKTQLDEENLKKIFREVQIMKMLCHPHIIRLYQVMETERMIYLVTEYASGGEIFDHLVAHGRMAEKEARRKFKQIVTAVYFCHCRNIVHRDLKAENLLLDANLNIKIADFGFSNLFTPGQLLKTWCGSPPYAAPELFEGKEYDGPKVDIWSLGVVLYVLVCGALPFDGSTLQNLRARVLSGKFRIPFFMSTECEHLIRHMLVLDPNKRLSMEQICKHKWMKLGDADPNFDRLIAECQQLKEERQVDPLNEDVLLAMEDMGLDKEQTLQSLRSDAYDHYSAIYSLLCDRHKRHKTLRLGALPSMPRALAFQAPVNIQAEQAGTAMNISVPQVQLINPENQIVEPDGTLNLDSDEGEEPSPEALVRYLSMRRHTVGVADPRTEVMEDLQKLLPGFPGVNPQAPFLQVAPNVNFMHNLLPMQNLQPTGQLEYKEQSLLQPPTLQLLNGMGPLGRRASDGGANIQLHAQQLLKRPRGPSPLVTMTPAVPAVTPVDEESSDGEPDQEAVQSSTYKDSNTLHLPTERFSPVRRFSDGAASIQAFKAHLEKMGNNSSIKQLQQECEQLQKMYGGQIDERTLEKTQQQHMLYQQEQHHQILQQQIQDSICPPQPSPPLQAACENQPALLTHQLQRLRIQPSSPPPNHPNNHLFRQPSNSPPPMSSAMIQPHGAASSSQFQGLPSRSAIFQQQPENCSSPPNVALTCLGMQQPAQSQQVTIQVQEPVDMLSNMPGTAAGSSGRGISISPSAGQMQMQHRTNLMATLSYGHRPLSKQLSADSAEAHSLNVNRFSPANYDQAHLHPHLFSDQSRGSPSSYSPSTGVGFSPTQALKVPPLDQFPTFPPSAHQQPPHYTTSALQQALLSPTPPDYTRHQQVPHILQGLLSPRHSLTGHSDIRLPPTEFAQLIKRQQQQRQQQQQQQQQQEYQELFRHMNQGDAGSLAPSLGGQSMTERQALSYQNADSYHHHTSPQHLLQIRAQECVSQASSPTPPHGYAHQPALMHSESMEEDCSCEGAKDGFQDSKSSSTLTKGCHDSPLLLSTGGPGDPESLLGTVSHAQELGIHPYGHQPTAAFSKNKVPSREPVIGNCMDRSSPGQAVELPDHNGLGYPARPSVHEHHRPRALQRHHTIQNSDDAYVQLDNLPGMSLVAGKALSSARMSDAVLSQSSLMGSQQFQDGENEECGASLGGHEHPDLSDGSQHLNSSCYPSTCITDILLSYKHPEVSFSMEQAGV
Method in brief: as §1

CDK9/T1 = target: T2, CDK9/T1 (Homo sapiens, UniProt P50750)
T2 construct: AssayQuant Technologies, Inc. (ran the panel)
T2 sequence (P50750 whole entry, species assumed): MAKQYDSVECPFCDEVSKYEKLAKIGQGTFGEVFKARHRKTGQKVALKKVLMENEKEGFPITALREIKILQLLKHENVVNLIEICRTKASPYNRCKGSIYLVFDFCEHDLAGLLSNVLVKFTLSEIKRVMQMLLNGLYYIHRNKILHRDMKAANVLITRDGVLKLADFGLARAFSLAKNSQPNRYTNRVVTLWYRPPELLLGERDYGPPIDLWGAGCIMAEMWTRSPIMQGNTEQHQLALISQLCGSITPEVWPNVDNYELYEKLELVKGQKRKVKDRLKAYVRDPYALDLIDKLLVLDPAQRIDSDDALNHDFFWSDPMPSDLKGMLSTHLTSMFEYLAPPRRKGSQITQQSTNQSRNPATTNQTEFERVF
T2 sequence (O60563 whole entry partner, species assumed): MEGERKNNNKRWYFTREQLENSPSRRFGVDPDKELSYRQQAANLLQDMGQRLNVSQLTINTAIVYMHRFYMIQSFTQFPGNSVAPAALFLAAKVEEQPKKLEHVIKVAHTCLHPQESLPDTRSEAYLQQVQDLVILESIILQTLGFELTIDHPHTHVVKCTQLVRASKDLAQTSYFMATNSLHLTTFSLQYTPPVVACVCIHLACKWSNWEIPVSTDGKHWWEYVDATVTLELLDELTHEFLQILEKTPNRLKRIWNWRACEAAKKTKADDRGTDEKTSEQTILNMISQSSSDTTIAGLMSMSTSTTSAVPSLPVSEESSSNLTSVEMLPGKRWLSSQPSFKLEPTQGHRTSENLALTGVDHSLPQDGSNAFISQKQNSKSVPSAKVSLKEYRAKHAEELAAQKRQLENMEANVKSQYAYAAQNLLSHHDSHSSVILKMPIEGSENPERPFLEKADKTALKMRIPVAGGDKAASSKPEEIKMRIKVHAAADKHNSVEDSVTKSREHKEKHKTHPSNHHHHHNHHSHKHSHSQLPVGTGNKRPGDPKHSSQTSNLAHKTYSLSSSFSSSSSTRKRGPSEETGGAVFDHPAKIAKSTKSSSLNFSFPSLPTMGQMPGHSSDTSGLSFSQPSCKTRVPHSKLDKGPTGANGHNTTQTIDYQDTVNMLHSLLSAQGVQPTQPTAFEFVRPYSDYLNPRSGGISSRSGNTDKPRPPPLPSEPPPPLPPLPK
Method in brief: as §1

CSNK1E/CK1E = target: T3, CSNK1E/CK1E (Homo sapiens, UniProt P49674)
T3 construct: AssayQuant Technologies, Inc. (service laboratory)
T3 sequence (P49674 whole entry): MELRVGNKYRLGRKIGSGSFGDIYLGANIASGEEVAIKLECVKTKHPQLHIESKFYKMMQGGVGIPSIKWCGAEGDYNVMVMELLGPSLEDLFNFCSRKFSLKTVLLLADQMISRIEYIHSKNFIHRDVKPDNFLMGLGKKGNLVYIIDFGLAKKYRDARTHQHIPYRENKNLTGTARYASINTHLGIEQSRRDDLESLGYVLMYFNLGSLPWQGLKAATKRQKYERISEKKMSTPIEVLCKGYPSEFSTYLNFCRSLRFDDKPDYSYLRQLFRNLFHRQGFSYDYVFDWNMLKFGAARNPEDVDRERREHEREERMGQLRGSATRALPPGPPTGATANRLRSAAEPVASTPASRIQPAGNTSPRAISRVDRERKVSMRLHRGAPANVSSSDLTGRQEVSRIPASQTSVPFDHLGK
Method in brief: as §1

SYK = target: T4, SYK (Homo sapiens, UniProt P43405)
T4 construct: AssayQuant Technologies, Inc. (contract assay)
Method in brief: as §1

ULK1 = target: T5, ULK1 (Homo sapiens, UniProt O75385)
T5 construct: AssayQuant Technologies, Inc. (contract laboratory that ran the panel)
T5 sequence (O75385 1-1050): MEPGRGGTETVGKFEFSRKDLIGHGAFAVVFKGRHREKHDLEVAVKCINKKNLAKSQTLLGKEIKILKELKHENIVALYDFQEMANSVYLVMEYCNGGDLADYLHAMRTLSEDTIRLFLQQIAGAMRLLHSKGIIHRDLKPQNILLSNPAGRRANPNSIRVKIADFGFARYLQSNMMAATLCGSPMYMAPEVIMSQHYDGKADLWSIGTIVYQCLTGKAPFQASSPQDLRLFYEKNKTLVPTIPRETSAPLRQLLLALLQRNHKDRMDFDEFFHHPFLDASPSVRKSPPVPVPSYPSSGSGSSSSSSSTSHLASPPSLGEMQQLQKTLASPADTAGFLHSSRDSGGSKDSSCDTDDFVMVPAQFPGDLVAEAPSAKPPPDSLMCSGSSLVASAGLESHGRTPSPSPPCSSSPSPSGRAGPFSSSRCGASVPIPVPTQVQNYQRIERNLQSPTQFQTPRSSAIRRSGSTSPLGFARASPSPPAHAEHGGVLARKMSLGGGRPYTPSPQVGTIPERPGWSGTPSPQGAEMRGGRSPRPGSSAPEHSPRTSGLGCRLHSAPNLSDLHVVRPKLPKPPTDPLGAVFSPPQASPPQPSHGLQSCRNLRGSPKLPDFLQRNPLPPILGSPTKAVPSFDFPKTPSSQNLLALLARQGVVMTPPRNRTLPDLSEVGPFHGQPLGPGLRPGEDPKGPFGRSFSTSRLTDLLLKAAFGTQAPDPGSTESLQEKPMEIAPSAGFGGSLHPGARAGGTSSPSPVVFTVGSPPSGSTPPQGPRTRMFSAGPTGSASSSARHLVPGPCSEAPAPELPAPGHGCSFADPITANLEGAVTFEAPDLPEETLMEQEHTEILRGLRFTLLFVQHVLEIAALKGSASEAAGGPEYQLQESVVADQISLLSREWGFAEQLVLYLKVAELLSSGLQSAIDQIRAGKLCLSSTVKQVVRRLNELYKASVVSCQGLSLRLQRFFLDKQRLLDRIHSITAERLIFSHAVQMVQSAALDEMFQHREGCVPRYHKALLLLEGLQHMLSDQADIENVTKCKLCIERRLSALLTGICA
Method in brief: as §1

MAPK9/JNK2 = target: T6, MAPK9/JNK2 (Homo sapiens, UniProt P45984)
T6 construct: AssayQuant Technologies, Inc. (service provider)
T6 sequence (P45984 whole entry): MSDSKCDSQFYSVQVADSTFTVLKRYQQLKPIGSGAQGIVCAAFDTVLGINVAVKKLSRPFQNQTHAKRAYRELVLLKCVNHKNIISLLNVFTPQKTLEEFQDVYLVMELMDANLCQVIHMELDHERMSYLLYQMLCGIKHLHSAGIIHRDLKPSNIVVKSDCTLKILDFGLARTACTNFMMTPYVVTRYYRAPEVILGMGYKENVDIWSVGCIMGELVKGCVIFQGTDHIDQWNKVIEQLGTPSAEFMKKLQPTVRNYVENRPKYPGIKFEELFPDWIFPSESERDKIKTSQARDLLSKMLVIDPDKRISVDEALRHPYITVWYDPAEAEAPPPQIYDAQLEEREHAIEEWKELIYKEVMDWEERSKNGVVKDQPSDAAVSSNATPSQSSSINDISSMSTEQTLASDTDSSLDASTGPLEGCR
Method in brief: as §1

MYLK3 = target: T7, MYLK3 (Homo sapiens, UniProt Q32MK0)
T7 construct: AssayQuant Technologies, Inc. (assay service)
T7 sequence (Q32MK0 1-819): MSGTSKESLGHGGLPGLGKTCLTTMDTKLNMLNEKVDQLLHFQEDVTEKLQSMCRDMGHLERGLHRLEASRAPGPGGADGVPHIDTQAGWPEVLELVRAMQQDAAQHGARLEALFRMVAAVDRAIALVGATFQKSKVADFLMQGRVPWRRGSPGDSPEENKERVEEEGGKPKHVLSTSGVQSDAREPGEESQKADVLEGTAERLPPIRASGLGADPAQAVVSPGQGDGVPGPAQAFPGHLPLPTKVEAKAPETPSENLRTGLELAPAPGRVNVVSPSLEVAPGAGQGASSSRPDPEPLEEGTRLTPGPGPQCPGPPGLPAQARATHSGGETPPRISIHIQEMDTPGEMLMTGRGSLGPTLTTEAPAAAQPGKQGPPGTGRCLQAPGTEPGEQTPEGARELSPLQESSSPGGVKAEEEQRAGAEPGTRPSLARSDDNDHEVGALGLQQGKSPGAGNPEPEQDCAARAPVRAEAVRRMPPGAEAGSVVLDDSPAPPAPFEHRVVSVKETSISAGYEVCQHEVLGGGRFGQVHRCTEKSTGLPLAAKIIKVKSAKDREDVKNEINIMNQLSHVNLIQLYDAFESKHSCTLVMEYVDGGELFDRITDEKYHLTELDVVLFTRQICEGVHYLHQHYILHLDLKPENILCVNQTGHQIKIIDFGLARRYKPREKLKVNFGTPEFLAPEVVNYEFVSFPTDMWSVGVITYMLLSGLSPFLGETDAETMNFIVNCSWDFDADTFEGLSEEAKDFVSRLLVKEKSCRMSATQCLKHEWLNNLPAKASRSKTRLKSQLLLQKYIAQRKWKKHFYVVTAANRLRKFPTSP
Method in brief: as §1

Chain of INSRR (P14616 27-1297, species assumed): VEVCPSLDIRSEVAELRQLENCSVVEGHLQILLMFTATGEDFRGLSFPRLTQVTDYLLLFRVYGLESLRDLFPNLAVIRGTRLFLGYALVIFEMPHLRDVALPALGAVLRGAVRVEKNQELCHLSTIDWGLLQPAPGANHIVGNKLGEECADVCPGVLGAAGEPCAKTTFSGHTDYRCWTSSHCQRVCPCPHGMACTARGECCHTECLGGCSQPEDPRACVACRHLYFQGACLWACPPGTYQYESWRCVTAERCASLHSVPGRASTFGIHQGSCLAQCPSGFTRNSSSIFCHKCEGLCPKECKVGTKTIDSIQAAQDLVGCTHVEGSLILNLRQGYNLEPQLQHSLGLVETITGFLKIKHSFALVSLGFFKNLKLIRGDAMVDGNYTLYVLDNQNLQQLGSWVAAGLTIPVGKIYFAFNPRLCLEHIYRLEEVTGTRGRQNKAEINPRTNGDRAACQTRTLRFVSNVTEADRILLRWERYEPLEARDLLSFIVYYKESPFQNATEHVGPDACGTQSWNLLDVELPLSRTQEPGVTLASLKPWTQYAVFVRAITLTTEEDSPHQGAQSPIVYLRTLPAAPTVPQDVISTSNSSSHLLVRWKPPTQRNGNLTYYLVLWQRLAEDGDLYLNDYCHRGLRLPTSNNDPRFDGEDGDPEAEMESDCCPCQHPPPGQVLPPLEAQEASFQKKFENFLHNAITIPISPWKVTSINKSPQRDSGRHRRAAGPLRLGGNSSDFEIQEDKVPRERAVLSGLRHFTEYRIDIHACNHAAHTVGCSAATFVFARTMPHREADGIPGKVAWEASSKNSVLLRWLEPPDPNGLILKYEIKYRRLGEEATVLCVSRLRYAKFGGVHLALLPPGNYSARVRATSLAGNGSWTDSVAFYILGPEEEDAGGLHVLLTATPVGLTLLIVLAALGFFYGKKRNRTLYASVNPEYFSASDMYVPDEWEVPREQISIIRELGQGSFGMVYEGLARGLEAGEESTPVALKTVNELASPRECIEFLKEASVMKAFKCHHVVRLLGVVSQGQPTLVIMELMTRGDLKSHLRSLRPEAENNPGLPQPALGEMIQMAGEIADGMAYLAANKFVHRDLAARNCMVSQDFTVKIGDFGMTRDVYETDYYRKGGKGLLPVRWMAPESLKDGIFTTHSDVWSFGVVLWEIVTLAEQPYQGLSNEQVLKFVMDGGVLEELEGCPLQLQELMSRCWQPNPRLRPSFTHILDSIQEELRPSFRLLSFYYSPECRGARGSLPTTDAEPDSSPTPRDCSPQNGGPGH

Compound	inhibition at 1 µM (INSRR) [%]	inhibition at 1 µM (SK3) [%]	inhibition at 1 µM (CDK9/T1) [%]	inhibition at 1 µM (CSNK1E/CK1E) [%]	inhibition at 1 µM (SYK) [%]	inhibition at 1 µM (ULK1) [%]	inhibition at 1 µM (MAPK9/JNK2) [%]	inhibition at 1 µM (MYLK3) [%]
C=CC(=O)N1CCCC(c2c(F)cc(C(N)=O)c3[nH]c4c(c23)CCCCC4)C1 (single isomer, unassigned) [Compound 5-6]	10.7	5.3	-11	-4.2	2.8	-3.1	-6.3	21.5
C=CC(=O)N1CCC[C@@H](c2c(F)cc(C(N)=O)c3[nH]c4c(c23)CC2(CC4)CC2)C1 [Compound 6-2, (S)-5-(1-acryloylpiperidin-3-yl)-6-fluoro-1,2,4,9-tetrahydrospiro[carbazole-3,1′-cyclopropane]-8-carboxamide]	-54.1	14.7	-9.9	-7.4	-5.3	-23.6	19.7	9.9
C=CC(=O)N1CCC[C@@H](c2c(F)cc(C(N)=O)c3[nH]c4c(c23)CCC4)C1 [Compound 10-2, (S)-8-(1-acryloylpiperidin-3-yl)-7-fluoro-1,2,3,4-tetrahydrocyclo-penta[b]indole-5-carboxamide]	-5.7	11.6	-26.7	15.1	-14.1	-6.1	3.8	14.9
